Our source for the TGI and GI50 values is PubChem BioAssay (NCI).

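Method: 48-hour compound exposure of cells in 96-well plates, five concentrations, linear interpolation of endpoints. Abbreviation: GI50, concentration required for 50% inhibition of growth. TGI: concentration producing complete growth inhibition.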

Common to all, as to assay: growth of human tumour cells (NCI), 48 h
In experiment [1] the test system is HOP-62 NSCLC.
Experiment [2] has as its system MALME-3M melanoma.
The subject of experiment [3] is ACHN renal.
In experiment [4] the test system is EKVX NSCLC.
The test system of experiment [5] is HCT-116 colon.
The test system of experiment [6] is SN12C renal.
The subject of experiment [7] is A498 renal.
Experiment [8] relates to HT29 colon.
Experiment [9] deals with KM12 colon.
Experiment [10] has as its system OVCAR-3 ovarian.

Regarding `CCN(CC)N1C(=O)[N+](CC)(CC)N=C1[O-]`, the TGI in experiment [1], in experiment [2], in experiment [3], in [4], in [5] and in [6] was more than 100 µM in each case. Moreover, the TGI in experiment [7], in experiment [8], in [9] and in experiment [10] was more than 100 µM in each case.

For `CCOc1ccc(N/C(=C(/C(Cl)=C(/Cl)N(CC)CC)[N+](=O)[O-])n2nnc3ccccc32)cc1`, the TGI in [1] is more than 100 µM; in experiment [2], 39 µM; in experiment [3], 47.9 µM; in [4], 69.6 µM; in experiment [5] it was 30.4 µM; in experiment [6], 49.6 µM. Moreover, the TGI in [7] stood at 73.5 µM; in [8] it was 63.8 µM; in experiment [9] it was 26.3 µM; in [10], 24.3 µM.

For `Cc1ccc(/C(O)=C/c2nc3ccccc3sc2=O)c(C)c1`, the TGI in experiment [1] is 97.3 µM; in experiment [2], more than 100 µM; in experiment [3], more than 100 µM; in experiment [4], more than 100 µM; in [5], more than 100 µM; in [6], more than 100 µM. Moreover, the TGI in experiment [7], in [8], in [9] and in experiment [10] was more than 100 µM each time.

As to `NC(=O)NNc1nc(-c2ccccc2)cs1`, the TGI in experiment [1], in [2], in experiment [3], in experiment [4], in experiment [5] and in experiment [6] was more than 100 µM in each case. Also, the TGI in experiment [7], in experiment [8], in experiment [9] and in [10] was more than 100 µM in each case.

As for `COc1ccc2c3c1OC1C(=O)C=CC4(CC2)N(C)CCC314` (stereo not drawn), the TGI in experiment [1] is more than 100 µM; in experiment [2], more than 100 µM; in [3], 73.9 µM; in [4] it was 92.8 µM; in experiment [5], 29.1 µM; in experiment [6] it was more than 100 µM. For the same compound, the TGI was 58.7 µM in experiment [7], more than 100 µM in [8], 43.4 µM in experiment [9] and more than 100 µM in experiment [10].

Consider `Cc1ccc2c(=O)cc(-c3ccc(Cl)s3)[nH]c2n1`, for which the TGI in experiment [1] was more than 100 µM; in experiment [2], more than 100 µM; in experiment [3], more than 100 µM; in [4], more than 100 µM; in experiment [5], more than 55.3 µM; in [6] it was more than 52.9 µM. In addition, the TGI in experiment [7] is more than 100 µM; in [8] it was more than 52.4 µM; in experiment [9], more than 100 µM; in [10] it was more than 100 µM.

On to `C=C[C@@H](C)[C@H](NS(=O)(=O)c1ccc(C)cc1)C(=O)OCC`, for which the TGI in experiment [1], in [2], in [3], in experiment [4], in [5] and in experiment [6] was more than 100 µM throughout. Also, the TGI is more than 100 µM in [7], 59.9 µM in experiment [8], more than 100 µM in [9] and 43.1 µM in experiment [10].

In the case of `NS(=O)(=O)c1ccc(/C=C/c2ccc(F)cc2)cc1`, the TGI in experiment [1] was 65.9 µM; in experiment [2], more than 100 µM; in experiment [3], 19.4 µM; in experiment [4] it was more than 100 µM; in experiment [5] it was 50.3 µM; in experiment [6] it was more than 100 µM. Moreover, the TGI is more than 100 µM in [7], more than 100 µM in experiment [8], 67 µM in experiment [9] and 57 µM in [10]. The GI50 was 2.97 µM in [3], 29.4 µM in [8] and 16.3 µM in experiment [9].

With `CC(C)CNc1nc2ncnc(N)c2[nH]1`, the TGI in experiment [1], in [2], in experiment [3], in experiment [4], in experiment [5] and in experiment [6] was more than 100 µM each time. The TGI in [7], in [8], in experiment [9] and in experiment [10] was more than 100 µM in each case.

With `OCC(O)C(O)C(O)C(O)c1nc2ccc(Cl)cc2[nH]1` (stereo not drawn), the TGI in experiment [1], in experiment [2], in experiment [3], in experiment [4], in experiment [5] and in [6] was more than 100 µM throughout. Also, the TGI in experiment [7], in experiment [8], in [9] and in [10] was more than 100 µM throughout.

On to `O=S(=O)(c1ccc(NC2=NC(c3ccc(O)cc3)(c3ccccc3O)c3ccccc32)cc1)c1ccc(NC2=NC(c3ccc(O)cc3)(c3ccccc3O)c3ccccc32)cc1` (stereo not drawn), for which the TGI is more than 100 µM in [1]; 13.1 µM in experiment [2]; more than 100 µM in experiment [3]; more than 52.6 µM in experiment [4]; 25.2 µM in [5]; more than 29.9 µM in experiment [6]. Moreover, the TGI in [7] is 44.8 µM; in experiment [8], more than 52.7 µM; in experiment [9], more than 21.4 µM; in experiment [10], more than 100 µM.
